Assay results from patent publication US10385024B2, “Compounds and methods for inhibiting NHE-mediated antiport in the treatment of disorders associated with fluid retention or salt overload and gastrointestinal tract disorders” (Ardelyx, Inc., priority 2012, dated 2019).

How the values were obtained:
[1] = target: T1, human NHE-3 (Homo sapiens, UniProt P48764); assay: Cell-based assay of NHE-3 activity (human NHE3 inhibition assay); settings: OK cells with human NHE-3 gene, BCECF pH dye, 0-30 μM test compound
T1 construct: expressed in transfected cells; host or cells: Opossum kidney (OK) cells (ATCC), transfected by electroporation
T1 sequence (P48764 26-834): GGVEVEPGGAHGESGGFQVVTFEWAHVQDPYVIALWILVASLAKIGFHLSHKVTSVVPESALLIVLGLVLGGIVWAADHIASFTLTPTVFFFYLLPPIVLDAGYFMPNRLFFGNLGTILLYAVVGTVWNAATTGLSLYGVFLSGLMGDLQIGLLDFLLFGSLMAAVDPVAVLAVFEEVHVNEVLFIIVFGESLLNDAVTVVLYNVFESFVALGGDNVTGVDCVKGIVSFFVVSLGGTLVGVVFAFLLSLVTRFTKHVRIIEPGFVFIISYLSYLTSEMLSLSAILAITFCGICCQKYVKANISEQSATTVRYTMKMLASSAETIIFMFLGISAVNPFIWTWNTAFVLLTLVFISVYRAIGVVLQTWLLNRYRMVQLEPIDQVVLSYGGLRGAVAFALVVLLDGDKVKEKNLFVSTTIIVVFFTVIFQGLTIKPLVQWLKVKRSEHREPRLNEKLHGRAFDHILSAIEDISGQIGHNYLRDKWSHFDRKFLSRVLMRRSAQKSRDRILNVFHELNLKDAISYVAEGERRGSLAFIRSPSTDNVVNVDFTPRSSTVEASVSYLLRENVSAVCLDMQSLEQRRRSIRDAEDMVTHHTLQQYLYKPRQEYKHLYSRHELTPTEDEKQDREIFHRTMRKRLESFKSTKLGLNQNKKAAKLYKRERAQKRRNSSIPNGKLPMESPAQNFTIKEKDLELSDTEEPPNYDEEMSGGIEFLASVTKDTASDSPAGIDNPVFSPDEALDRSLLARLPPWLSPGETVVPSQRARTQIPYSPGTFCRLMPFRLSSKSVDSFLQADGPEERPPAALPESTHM
Method in brief: (§1)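 Opossum kidney cells electroporated with rat or human NHE-3, loaded with 5 μM BCECF-AM in NH4Cl-HEPES pH 7.4 for 30 min at RT, then acidified 10 min in Na+-free choline HEPES. Na+-dependent pH recovery rates from BCECF fluorescence, averaged over ≥2 replicates, gave pIC50.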

[2] = test system: absorption of sodium from the intestinal lumen; assay: Inhibition of intestinal sodium absorption (urinary sodium and fecal form); format: in vivo, Sprague-Dawley rats; settings: rat, 3 mg/kg oral gavage, urine 16 h post-dose; asterisks = significance vs vehicle (*P<0.05, **P<0.01, ***P<0.001); read-out: uNa (% of vehicle)
Experimental: Urinary sodium concentration and fecal form were measured to assess the ability of selected example compounds to inhibit the absorption of sodium from the intestinal lumen. Eight-week old Sprague-Dawley rats were purchased from Charles River Laboratories (Hollister, Calif.), were housed 2 per cage, and acclimated for at least 3 days before study initiation. Animals were fed Harlan Teklad Global 2018 rodent chow (Indianapolis, Ind.) and water ad libitum throughout the study and maintained in a standard light/dark cycle of 6 AM to 6 PM. On the day of the study, between 4 PM and 5 PM, a group of rats (n=6) were dosed via oral gavage with test compound at the dosage indicated or vehicle (water) at a volume of 10 mL/kg. After dose administration animals were placed in individual metabolic cages where they were also fed the same chow in meal form and watered ad libitum. At 16 h post-dose, the urine samples were collected and fecal form was assessed by two independent observations. Fecal forms were scored according to a common scale associated with increasing fecal water to the wettest observation in the cage's collection funnel (1, normal pellet; 2, pellet adhering to sides of collection funnel due to moisture; 3, loss of normal pellet shape; 4, complete loss of shape with a blotting pattern; 5, liquid fecal streams evident). A rat's fecal form score (FFS) was determined by averaging both observational scores for all rats within a group (n=6). In every study the vehicle group average was 1. For urine samples, the volumes were determined gravimetrically and centrifuged at 3,600×g. The supernatants were diluted 100-fold in deionized Milli-Q water then filtered through a 0.2 μm GHP Pall AcroPrep filter plate (Pall Life Sciences, Ann Arbor, Mich.) prior to analysis by ion chromatography. Ten microliters of each filtered extract was injected onto a Dionex ICS-3000 ion chromatograph system (Dionex, Sunnyvale, Calif.). Cations were separated by an isocratic method using 25 mM methanesulfonic acid as the eluent on an IonPac CS12A 2 mm i.d.×250 mm, 8 μm particle size cation exchange column (Dionex). Sodium was quantified using standards prepared from a cation standard mix containing Li^+, Na^+, NH4^+, K^+, Mg^2+, and Ca^2+ (Dionex). The mean mass of sodium urinated for every group in the 16 h period was determined with the vehicle group usually urinating approximately 21 mg sodium. The urine Na (uNa) for rats in the test groups were expressed as a percentage of the vehicle mean and the means were compared to that of the vehicle group by utilizing a one-way analysis of variance coupled with a Dunnett's post hoc test.

[3] = target: T2, Rat NHE-3 (Rattus norvegicus, UniProt P26433); assay: Cell-based assay of NHE-3 activity (persistent inhibition, after washout); settings: OK cells with rat NHE-3 gene, 60 min incubation, recovery initiated 40 min after compound washout
T2 construct: expressed in transfected cells; host or cells: Opossum kidney (OK) cells (ATCC), transfected by electroporation
Method in brief: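 OK cells transiently expressing rat NHE-3 were exposed to 0-30 μM compound in NaCl-HEPES pH 7.4 for 60 min, then washed free of drug before NH4Cl/BCECF-AM loading and acid-loading in Na+-free choline buffer. Na+-dependent pH recovery rates (mean of ≥2 replicates) gave pIC50.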

[4] = target: T2, Rat NHE-3; assay: Cell-based assay of NHE-3 activity (rat NHE-3 prompt inhibition); settings: OK cells with rat NHE-3 gene, compound present during pH recovery
Method in brief: as §1

T2 sequence (P26433 29-831): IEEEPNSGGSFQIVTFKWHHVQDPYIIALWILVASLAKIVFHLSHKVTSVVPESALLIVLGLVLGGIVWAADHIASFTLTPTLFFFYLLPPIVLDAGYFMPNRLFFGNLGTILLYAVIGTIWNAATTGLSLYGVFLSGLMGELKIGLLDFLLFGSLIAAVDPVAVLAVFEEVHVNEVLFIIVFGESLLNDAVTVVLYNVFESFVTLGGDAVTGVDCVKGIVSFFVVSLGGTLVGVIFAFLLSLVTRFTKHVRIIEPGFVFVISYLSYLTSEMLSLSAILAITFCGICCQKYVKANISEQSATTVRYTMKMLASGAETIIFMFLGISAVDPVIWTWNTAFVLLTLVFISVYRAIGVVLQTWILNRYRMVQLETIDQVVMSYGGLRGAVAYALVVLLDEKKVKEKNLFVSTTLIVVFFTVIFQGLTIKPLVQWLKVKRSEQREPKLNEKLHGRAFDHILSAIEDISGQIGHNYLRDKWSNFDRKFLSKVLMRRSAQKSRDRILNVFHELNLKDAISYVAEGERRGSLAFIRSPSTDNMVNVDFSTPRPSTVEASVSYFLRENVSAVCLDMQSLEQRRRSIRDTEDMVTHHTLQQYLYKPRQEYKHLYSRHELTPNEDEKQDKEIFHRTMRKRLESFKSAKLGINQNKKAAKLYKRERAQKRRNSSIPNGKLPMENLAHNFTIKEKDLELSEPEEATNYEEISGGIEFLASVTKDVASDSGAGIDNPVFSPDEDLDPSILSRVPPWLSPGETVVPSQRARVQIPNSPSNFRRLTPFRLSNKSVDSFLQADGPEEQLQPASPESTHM

| SMILES | IC50 ([1]; read-out: Human NHE3 pIC50 (converted)) | response vs control in vivo at 3 mg/kg [2] | IC50 ([3]; read-out: Rat NHE3 pIC50 (persistent) (converted)) | IC50 ([4]; read-out: Rat NHE3 pIC50 (prompt) (converted)) | Human NHE3 pIC50 [1] | Rat NHE3 pIC50 (persistent) [3] | Rat NHE3 pIC50 (prompt) [4] |
| --- | --- | --- | --- | --- | --- | --- | --- |
| CN1Cc2c(Cl)cc(Cl)cc2[C@H](c2cccc(S(=O)(=O)NCCOCCOCCNC(=O)N(C)CCCN(CCCN(C)C(=O)NCCOCCOCCNS(=O)(=O)c3cccc([C@@H]4CN(C)Cc5c(Cl)cc(Cl)cc54)c3)CCCN(C)C(=O)NCCOCCOCCNS(=O)(=O)c3cccc([C@@H]4CN(C)Cc5c(Cl)cc(Cl)cc54)c3)c2)C1 [Example 47, (S)—N,N′-(15-(1-(3-((S)-6,8-dichloro-2-methyl-1,2,3,4-tetrahydroisoquinolin-4-yl)phenylsulfonamido)-11-methyl-10-oxo-3,6-dioxa-9,11-diazatetradecan-14-yl)-11,19-dimethyl-10,20-dioxo-3,6,24,27-tetraoxa-9,11,15,19,21-pentaazanonacosane-1,29-diyl)bis(3-((S)-6,8-dichloro-2-methyl-1,2,3,4-tetrahydroisoquinolin-4-yl)benzenesulfonamide)] | < 0.1 µM | 35 to 75% | < 0.1 µM | 0.1 to 10 µM |  |  |  |
| CN1Cc2c(Cl)cc(Cl)cc2[C@H](c2cccc(S(=O)(=O)NCCOCCOCCNC(=O)NCCN(CCNC(=O)NCCOCCOCCNS(=O)(=O)c3cccc([C@@H]4CN(C)Cc5c(Cl)cc(Cl)cc54)c3)CCNC(=O)NCCOCCOCCNS(=O)(=O)c3cccc([C@@H]4CN(C)Cc5c(Cl)cc(Cl)cc54)c3)c2)C1 [Example 53] |  | 35 to 75% |  |  | B (B NHE3 pIC50 5-7) | C (C NHE3 pIC50 > 7) | B (B NHE3 pIC50 5-7) |
| CN1Cc2c(Cl)cc(Cl)cc2[C@H](c2cccc(S(=O)(=O)N(C)CCOCCOCCNC(=O)NCCCN(CCCNC(=O)NCCOCCOCCN(C)S(=O)(=O)c3cccc([C@@H]4CN(C)Cc5c(Cl)cc(Cl)cc54)c3)CCCNC(=O)NCCOCCOCCN(C)S(=O)(=O)c3cccc([C@@H]4CN(C)Cc5c(Cl)cc(Cl)cc54)c3)c2)C1 [Example 54] |  | > 75% |  |  | C (C NHE3 pIC50 > 7) | C (C NHE3 pIC50 > 7) | B (B NHE3 pIC50 5-7) |
| CN1Cc2c(Cl)cc(Cl)cc2[C@H](c2cccc(S(=O)(=O)N(CCO)CCOCCOCCNC(=O)NCCCN(CCCNC(=O)NCCOCCOCCN(CCO)S(=O)(=O)c3cccc([C@@H]4CN(C)Cc5c(Cl)cc(Cl)cc54)c3)CCCNC(=O)NCCOCCOCCN(CCO)S(=O)(=O)c3cccc([C@@H]4CN(C)Cc5c(Cl)cc(Cl)cc54)c3)c2)C1 [Example 56] |  | 35 to 75% |  |  | C (C NHE3 pIC50 > 7) | C (C NHE3 pIC50 > 7) | C (C NHE3 pIC50 > 7) |
| CCN(CCOCCOCCNC(=O)NCCCN(CCCNC(=O)NCCOCCOCCN(CC)S(=O)(=O)c1cccc([C@@H]2CN(C)Cc3c(Cl)cc(Cl)cc32)c1)CCCNC(=O)NCCOCCOCCN(CC)S(=O)(=O)c1cccc([C@@H]2CN(C)Cc3c(Cl)cc(Cl)cc32)c1)S(=O)(=O)c1cccc([C@@H]2CN(C)Cc3c(Cl)cc(Cl)cc32)c1 [Example 57] |  | 35 to 75% |  |  | C (C NHE3 pIC50 > 7) | C (C NHE3 pIC50 > 7) | B (B NHE3 pIC50 5-7) |
| CN1Cc2c(Cl)cc(Cl)cc2[C@H](c2cccc(S(=O)(=O)NCCOCCOCCNC(=O)NCCC[N+](C)(CCCNC(=O)NCCOCCOCCNS(=O)(=O)c3cccc([C@@H]4CN(C)Cc5c(Cl)cc(Cl)cc54)c3)CCCNC(=O)NCCOCCOCCNS(=O)(=O)c3cccc([C@@H]4CN(C)Cc5c(Cl)cc(Cl)cc54)c3)c2)C1 [Example 58] |  | 35 to 75% |  |  | C (C NHE3 pIC50 > 7) | C (C NHE3 pIC50 > 7) | C (C NHE3 pIC50 > 7) |
| CN1Cc2c(Cl)cc(Cl)cc2[C@H](c2cccc(S(=O)(=O)NCCOCCOCCNC(=O)NCCCC(CCCNC(=O)NCCOCCOCCNS(=O)(=O)c3cccc([C@@H]4CN(C)Cc5c(Cl)cc(Cl)cc54)c3)(CCCNC(=O)NCCOCCOCCNS(=O)(=O)c3cccc([C@@H]4CN(C)Cc5c(Cl)cc(Cl)cc54)c3)NC(=O)CCC(=O)O)c2)C1 [Example 63] |  | 35 to 75% |  |  | C (C NHE3 pIC50 > 7) | C (C NHE3 pIC50 > 7) | C (C NHE3 pIC50 > 7) |
| CN1Cc2c(Cl)cc(Cl)cc2[C@H](c2cccc(S(=O)(=O)NCCOCCOCCNC(=O)NCCCC(CCCNC(=O)NCCOCCOCCNS(=O)(=O)c3cccc([C@@H]4CN(C)Cc5c(Cl)cc(Cl)cc54)c3)(CCCNC(=O)NCCOCCOCCNS(=O)(=O)c3cccc([C@@H]4CN(C)Cc5c(Cl)cc(Cl)cc54)c3)NC(=O)COCC(=O)O)c2)C1 [Example 64] |  | 35 to 75% |  |  | C (C NHE3 pIC50 > 7) | C (C NHE3 pIC50 > 7) | C (C NHE3 pIC50 > 7) |
| CN1Cc2c(Cl)cc(Cl)cc2[C@H](c2cccc(S(=O)(=O)NCCOCCOCCNC(=O)NCCC(CCNC(=O)NCCOCCOCCNS(=O)(=O)c3cccc([C@@H]4CN(C)Cc5c(Cl)cc(Cl)cc54)c3)(CCNC(=O)NCCOCCOCCNS(=O)(=O)c3cccc([C@@H]4CN(C)Cc5c(Cl)cc(Cl)cc54)c3)NC(=O)COCC(=O)O)c2)C1 [Example 66] |  | < 35% |  |  | C (C NHE3 pIC50 > 7) | C (C NHE3 pIC50 > 7) | C (C NHE3 pIC50 > 7) |
| CN1Cc2c(Cl)cc(Cl)cc2[C@H](c2cccc(S(=O)(=O)NCCOCCOCCN(C)C(=O)CCC(N)(CCC(=O)N(C)CCOCCOCCNS(=O)(=O)c3cccc([C@@H]4CN(C)Cc5c(Cl)cc(Cl)cc54)c3)CCC(=O)N(C)CCOCCOCCNS(=O)(=O)c3cccc([C@@H]4CN(C)Cc5c(Cl)cc(Cl)cc54)c3)c2)C1 [Example 67] |  | > 75% |  |  | C (C NHE3 pIC50 > 7) | C (C NHE3 pIC50 > 7) | C (C NHE3 pIC50 > 7) |
